Where a name gives a salt, the structure may show the parent alone.
Key:
rNHE3 = target: T1, rNHE3 (Rattus norvegicus, UniProt P26433); assay: Recovery of intracellular pH (pHi) after acidification, BCECF fluorescence, NHE inhibition; assay type: cell-based; settings: pH recovery recorded 3 minutes for NHE3; bicarbonate-free conditions
T1 construct: expressed in transfected cells
Description: In this test, the recovery of the intracellular pH (pHi) which commences with functional NHE after acidification even under bicarbonate-free conditions. For this, the pHi was determined using the pH-sensitive fluorescent dye BCECF (Calbiochem, the precursor BCECF-AM is employed). The cells were first loaded with BCECF. The BCECF fluorescence was determined in a ratio fluorescence spectrometer (Photon Technology International, South Brunswick, N.J., USA) at excitation wavelengths of 505 and 440 nm and an emission wavelength of 535 nm and converted into the pHi by means of calibration curves. During BCECF loading, the cells were already incubated in NH4Cl buffer (pH 7.4) (NH4Cl buffer: 115 mM NaCl, 20 mM NH4Cl, 5 mM KCl, 1 mM CaCl2, 1 mM MgSO4, 20 mM Hepes, 5 mM glucose, 1 mg/ml of BSA; a pH of 7.4 is set using 1 M NaOH). The intracellular acidification was induced by addition of 975 μl of an NH4Cl-free buffer (see below) to 25 μl aliquots of the cells incubated in NH4Cl buffer. The subsequent rate of the pH recovery was recorded for 2 minutes in the case of NHE1, for 5 minutes in the case of NHE2 and 3 minutes in the case of NHE3. For the calculation of the inhibitory potency of the tested substances, the cells were first investigated in buffers in which a complete recovery or no pH recovery at all took place. For complete pH recovery (100%), the cells were incubated in Na^+-containing buffer (133.8 mM NaCl, 4.7 mM KCl, 1.25 mM CaCl2, 1.25 mM MgCl2, 0.97 mM Na2HPO4, 0.23 mM NaH2PO4, 5 mM Hepes, 5 mM glucose, a pH of 7.0 is set using 1 M NaOH). For the determination of the 0% value, the cells were incubated in an Na^+-free buffer (133.8 mM choline chloride, 4.7 mM KCl, 1.25 mM CaCl2, 1.25 mM MgCl2, 0.97 mM K2HPO4, 0.23 mM KH2PO4, 5 mM Hepes, 5 mM glucose, a pH of 7.0 is set using 1 M NaOH). The substances to be tested were applied in the Na^+-containing buffer. The recovery of the intracellular pH at any tested concentration of a substance was expressed as a percentage of the maximum recovery. By means of the program Sigma Plot, the IC50 value of the respective substance for the individual NHE subtypes was calculated from the percentage values of the pH recovery.

[1] = Solubility by UV spectroscopy in 0.9% strength NaCl solution; assay type: physicochemical; settings: 0.9% NaCl solution, saline or isotonic
Description: The solubilities indicated below are determined by UV spectroscopy in a 0.9% strength NaCl solution.

T1 sequence (P26433 29-831): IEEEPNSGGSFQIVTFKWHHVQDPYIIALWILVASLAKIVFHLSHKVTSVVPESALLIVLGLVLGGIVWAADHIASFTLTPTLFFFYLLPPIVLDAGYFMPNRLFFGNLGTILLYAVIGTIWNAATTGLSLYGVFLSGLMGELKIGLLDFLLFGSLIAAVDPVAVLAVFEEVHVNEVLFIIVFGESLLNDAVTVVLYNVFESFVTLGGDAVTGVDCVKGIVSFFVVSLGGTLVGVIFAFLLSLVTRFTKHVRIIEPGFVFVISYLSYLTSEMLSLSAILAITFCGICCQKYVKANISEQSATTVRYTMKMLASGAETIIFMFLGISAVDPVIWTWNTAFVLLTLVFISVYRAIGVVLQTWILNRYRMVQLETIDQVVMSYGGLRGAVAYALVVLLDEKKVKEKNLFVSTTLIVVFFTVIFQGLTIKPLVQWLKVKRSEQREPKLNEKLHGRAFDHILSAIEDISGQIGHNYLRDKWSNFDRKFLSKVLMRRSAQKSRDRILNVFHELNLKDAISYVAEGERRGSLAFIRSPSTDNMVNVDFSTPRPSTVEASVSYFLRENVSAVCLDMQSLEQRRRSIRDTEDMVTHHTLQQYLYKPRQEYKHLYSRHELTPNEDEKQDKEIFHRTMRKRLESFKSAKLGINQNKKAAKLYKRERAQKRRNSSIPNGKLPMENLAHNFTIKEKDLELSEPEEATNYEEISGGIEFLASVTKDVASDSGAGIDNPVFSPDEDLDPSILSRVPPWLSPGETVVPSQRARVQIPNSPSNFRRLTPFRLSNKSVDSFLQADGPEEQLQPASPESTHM

Row | IC50 (rNHE3) [nM] | solubility [1] [µg/mL] | SMILES
1 | 70 | – | C/C(=C\c1cc(F)c(Oc2ccc(S(N)(=O)=O)cc2)c(F)c1)C(=O)N=C(N)N [Example 1, 4-[2,6-Difluoro-4-(3-guanidino-2-methyl-3-oxopropenyl)phenoxy]benzenesulfonamide; HCl salt]
2 | 20 | – | C/C(=C\c1cc(F)c(Oc2ccc(S(N)(=O)=O)cc2)c(F)c1)C(=O)N=C(N)N [Example 2, 4-[2,6-Difluoro-4-(3-guanidino-2-methyl-3-oxopropenyl)phenoxy]benzenesulfonamide; methanesulfonate]
3 | 60 | 1860 | C/C(=C\c1cc(F)c(Oc2ccc(S(=O)(=O)NCCN(C)C)cc2)c(F)c1)C(=O)N=C(N)N.Cl.Cl [Example 6, 4-[2 ,6-Difluoro-4-(3-guanidino-2-methyl-3-oxopropenyl)phenoxy]-N-(2-dimethylaminoethyl)benzenesulfonamide, HCl salt]
4 | 90 | – | CNC(=O)NS(=O)(=O)c1ccc(Oc2c(F)cc(/C=C(\C)C(=O)N=C(N)N)cc2F)cc1 [Example 8, 4-[2 ,6-Difluoro-4-(3-guanidino-2-methyl-3-oxopropenyl)phenoxy]benzenesulfone N-(carboxy-N′-methylamid)amide; HCl salt]
5 | 70 | – | CCNC(=O)NS(=O)(=O)c1ccc(Oc2c(F)cc(/C=C(\C)C(=O)N=C(N)N)cc2F)cc1 [Example 9, 4-[2,6-Difluoro-4-(3-guanidino-2-methyl-3-oxopropenyl)phenoxy]benzenesulfone N-(carboxy-N′-ethylamid)amide; HCl salt]

More lines, now with the values behind:

Row | SMILES | IC50 (rNHE3) [nM] | solubility [1] [µg/mL]
6 | C/C(=C\c1ccc(Oc2ccc(S(N)(=O)=O)cc2)cc1)C(=O)N=C(N)N [Example 3, 4-[4-(3-Guanidino-2-methyl-3-oxopropenyl)phenoxy]benzenesulfonamide; HCl salt] | 130 | –
7 | C/C(=C\c1ccc(Nc2ccc(S(N)(=O)=O)cc2)cc1)C(=O)N=C(N)N [Example 4, 4-[4-(3-Guanidino-2-methyl-3-oxopropenyl)phenylamino]benzenesulfonamide; trifluoroacetate] | 620 | –
8 | C/C(=C\c1ccc(Nc2cccc(S(N)(=O)=O)c2)cc1)C(=O)N=C(N)N [Example 5, 3-[4-(3-Guanidino-2-methyl-3-oxopropenyl)phenylamino]benzenesulfonamide, trifluoroacetate] | 1200 | –
9 | C/C(=C\c1cc(F)c(Oc2ccc(S(=O)(=O)N3CCN(C)CC3)cc2)c(F)c1)C(=O)N=C(N)N [Example 7, N-(3-{3,5-Difluoro-4-[4-(4-methylpiperazin-1-sulfonyl)phenoxy]phenyl}-2-methyl-acryloyl)guanidine; trifluoroacetate] | 2600 | > 2190
10 | C/C(=C\c1ccc(Nc2ccc(S(=O)(=O)NCCN(C)C)cc2)cc1)C(=O)N=C(N)N.Cl.Cl [Example 10, N-(2-Dimethylaminoethyl)-4-[4-(3-guanidino-2-methyl-3-oxopropenyl)phenylamino]-benzenesulfonamide; HCl salt] | 1100 | 1280
11 | C/C(=C\c1ccc(Nc2ccc(S(=O)(=O)NCCN3CCCC3)cc2)cc1)C(=O)N=C(N)N.Cl.Cl [Example 11, 4-[4-(3-Guanidino-2-methyl-3-oxopropenyl)phenylamino]-N-(2-pyrrolidin-1-ylethyl)-benzenesulfonamide; HCl salt] | 850 | 1520
12 | C/C(=C\c1ccc(Nc2ccc(S(=O)(=O)N3CCN(C)CC3)cc2)cc1)C(=O)N=C(N)N.Cl.Cl [Example 12, N-(2-Methyl-3-{4-[4-(4-methylpiperazine-1-sulfonyl)phenylamino]phenyl}acryloyl)-guanidine; HCl salt] | 2600 | 1760
13 | C/C(=C\c1ccc(Nc2ccc(S(=O)(=O)N(C)C3CCN(C)C3)cc2)cc1)C(=O)N=C(N)N.Cl.Cl (centres unmarked) [Example 13, 4-[4-(3-Guanidino-2-methyl-3-oxopropenyl)phenylamino]-N-methyl-N-(1-methyl-pyrrolidin-3-yl)benzenesulfonamide, HCl salt] | 590 | 3080
14 | CNS(=O)(=O)c1ccc(Nc2ccc(/C=C(\C)C(=O)N=C(N)N)cc2)cc1 [Example 14, 4-[4-(3-Guanidino-2-methyl-3-oxopropenyl)phenylamino]-N-methylbenzenesulfonamide; HCl salt] | 850 | –

— patent publication US6399824B1, “Substituted cinnamic, acid guanidides, process for their preparation, their use as a medicament, and medicament comprising them” (Aventis Pharma Deutschland GmbH, priority 2000, dated 2002)
